# Laboratory results published in PubChem BioAssay AID328 (DTP/NCI, 2004).
# Values joined by “and” are separate entries in the source; they are usually repeats but may differ in a detail not shown here. Equal entries are not always repeated. Toxic doses and inconclusive results are not listed.
# System: BDF1 mice, P388 leukemia ip, median survival T/C
# Assay: NCI In Vivo Anticancer Drug Screen. Data for tumor model P388 Leukemia (intraperitoneal) in B6D2F1 (BDF1) mice
# Conditions: endpoint: median survival time, higher = longer survival
# Procedure: The antitumor activity of compounds was measured in mice bearing transplantable tumors. Survival or tumor size were measured and the results are expressed as the measurement made in the treated group (T) divided by the measurement made in the vehicle treated control group (C). The tumor model used in this assay is P388 Leukemia (intraperitoneal) in B6D2F1 (BDF1) mice
# [1] = dose: 100.0 mg/kg/injection, schedule: Q04DX003 (ip), vehicle: Klucel (hydroxypropylcellulose) (HPC)
# [2] = dose: 200.0 mg/kg/injection, schedule: Q04DX003 (ip), vehicle: Klucel (hydroxypropylcellulose) (HPC)
# [3] = dose: 400.0 mg/kg/injection, schedule: Q04DX003 (ip), vehicle: Klucel (hydroxypropylcellulose) (HPC)
# [4] = dose: 100.0 mg/kg/injection, schedule: Q01DX009 (ip), vehicle: Klucel (hydroxypropylcellulose) (HPC)
# [5] = dose: 200.0 mg/kg/injection, schedule: Q01DX009 (ip), vehicle: Klucel (hydroxypropylcellulose) (HPC)
# [6] = dose: 400.0 mg/kg/injection, schedule: Q01DX009 (ip), vehicle: Klucel (hydroxypropylcellulose) (HPC)
# [7] = dose: 25.0 mg/kg/injection, schedule: Q01DX009 (ip), vehicle: saline with Tween-80
# [8] = dose: 50.0 mg/kg/injection, schedule: Q01DX009 (ip), vehicle: saline with Tween-80
# [9] = dose: 100.0 mg/kg/injection, schedule: Q01DX009 (ip), vehicle: saline with Tween-80
# [10] = dose: 100.0 mg/kg/injection, schedule: Q04DX003 (ip), vehicle: saline with Tween-80
# [11] = dose: 200.0 mg/kg/injection, schedule: Q04DX003 (ip), vehicle: saline with Tween-80
# [12] = dose: 400.0 mg/kg/injection, schedule: Q04DX003 (ip), vehicle: saline with Tween-80
# [13] = dose: 25.0 mg/kg/injection, schedule: Q01DX009 (ip), vehicle: saline
# [14] = dose: 200.0 mg/kg/injection, schedule: Q01DX009 (ip), vehicle: saline with Tween-80
# [15] = dose: 6.25 mg/kg/injection, schedule: Q01DX009 (ip), vehicle: saline
compound,measurement,setting,value
Cc1ccc2c(c1)CN(Cc1ccccc1)CO2,T/C,[1],104 % of control
same,T/C,[2],100 % of control
same,T/C,[3],100 % of control
Nc1cccc2c1C(=O)c1cccc(NC(=O)c3ccccc3)c1C2=O,T/C,"dose: 6.25 mg/kg/injection, schedule: Q01DX009 (ip), vehicle: Klucel (hydroxypropylcellulose) (HPC)",104 % of control
same,T/C,"dose: 12.5 mg/kg/injection, schedule: Q01DX009 (ip), vehicle: Klucel (hydroxypropylcellulose) (HPC)",109 % of control
same,T/C,"dose: 25.0 mg/kg/injection, schedule: Q01DX009 (ip), vehicle: Klucel (hydroxypropylcellulose) (HPC)",116 % of control
same,T/C,"dose: 50.0 mg/kg/injection, schedule: Q01DX009 (ip), vehicle: Klucel (hydroxypropylcellulose) (HPC)",113 % of control
same,T/C,[4],115 % of control
same,T/C,[5],122 % of control
same,T/C,[6],151 % of control
COc1c(OC)c(OC)c(C(=O)/C=C/c2ccccc2)c(OC)c1OC,T/C,[7],104 % of control
same,T/C,[8],104 % of control
same,T/C,[9],99 % of control
Nc1ccc(S(=O)(=O)Nc2ccc([N+](=O)[O-])cc2)cc1,T/C,"dose: 12.5 mg/kg/injection, schedule: Q01DX009 (ip), vehicle: saline with Tween-80",87 % of control
same,T/C,[7],96 % of control and 105 % of control
same,T/C,"dose: 25.0 mg/kg/injection, schedule: Q04DX003 (ip), vehicle: saline with Tween-80",102 % of control
same,T/C,[8],89 % of control
same,T/C,"dose: 50.0 mg/kg/injection, schedule: Q04DX003 (ip), vehicle: saline with Tween-80",99 % of control
same,T/C,[9],87 % of control and 93 % of control
same,T/C,[10],105 % of control
same,T/C,[11],112 % of control
same,T/C,[12],114 % of control
Cc1nnc(NC(=O)CCl)s1,T/C,[13],95 % of control and 100 % of control and 113 % of control
same,T/C,"dose: 35.0 mg/kg/injection, schedule: Q01DX009 (ip), vehicle: saline",113 % of control
same,T/C,"dose: 50.0 mg/kg/injection, schedule: Q01DX009 (ip), vehicle: saline",100 % of control
same,T/C,[4],106 % of control
same,T/C,"dose: 100.0 mg/kg/injection, schedule: Q01DX009 (ip), vehicle: saline",100 % of control and 105 % of control
same,T/C,[5],111 % of control
O=[N+]([O-])c1cc2c3ccccc3ccc2c2ccccc12,T/C,[4],104 % of control
same,T/C,[1],100 % of control
same,T/C,[5],100 % of control
same,T/C,[2],100 % of control
same,T/C,[6],104 % of control
same,T/C,[3],100 % of control
c1ccc2c(c1)ccc1cc3c(ccc4ccccc43)cc12,T/C,[9],120 % of control
same,T/C,[10],118 % of control
same,T/C,[14],112 % of control
same,T/C,[11],109 % of control
same,T/C,[12],109 % of control
O=NN(CCCl)C(=O)Nc1ccc(CCO)cc1,T/C,"dose: 0.12 mg/kg/injection, schedule: Q04DX003 (ip), vehicle: saline",100 % of control
same,T/C,"dose: 0.13 mg/kg/injection, schedule: Q01DX009 (ip), vehicle: Klucel (hydroxypropylcellulose) (HPC)",112 % of control
same,T/C,"dose: 0.2 mg/kg/injection, schedule: Q01DX009 (ip), vehicle: Klucel (hydroxypropylcellulose) (HPC)",91 % of control
same,T/C,"dose: 0.2 mg/kg/injection, schedule: Q01DX009 (ip), vehicle: alcohol",100 % of control
same,T/C,"dose: 0.25 mg/kg/injection, schedule: Q04DX003 (ip), vehicle: saline",104 % of control
same,T/C,"dose: 0.3 mg/kg/injection, schedule: Q01DX009 (ip), vehicle: alcohol",108 % of control
same,T/C,"dose: 0.5 mg/kg/injection, schedule: Q01DX009 (ip), vehicle: alcohol",150 % of control
same,T/C,"dose: 0.5 mg/kg/injection, schedule: Q01DX009 (ip), vehicle: other",181 % of control
same,T/C,"dose: 0.5 mg/kg/injection, schedule: Q04DX003 (ip), vehicle: saline + alcohol",155 % of control
same,T/C,"dose: 0.5 mg/kg/injection, schedule: Q04DX003 (ip), vehicle: saline",117 % of control
same,T/C,"dose: 1.0 mg/kg/injection, schedule: Q01DX009 (ip), vehicle: Klucel (hydroxypropylcellulose) (HPC)",150 % of control
same,T/C,"dose: 1.0 mg/kg/injection, schedule: Q01DX009 (ip), vehicle: alcohol",183 % of control
same,T/C,"dose: 1.0 mg/kg/injection, schedule: Q01DX009 (ip), vehicle: other",181 % of control
same,T/C,"dose: 1.0 mg/kg/injection, schedule: Q04DX003 (ip), vehicle: saline + alcohol",188 % of control
same,T/C,"dose: 1.65 mg/kg/injection, schedule: Q01DX009 (ip), vehicle: Klucel (hydroxypropylcellulose) (HPC)",200 % of control
same,T/C,"dose: 1.65 mg/kg/injection, schedule: Q01DX009 (ip), vehicle: saline",266 % of control
same,T/C,"dose: 2.0 mg/kg/injection, schedule: Q01DX009 (ip), vehicle: alcohol",237 % of control
same,T/C,"dose: 2.0 mg/kg/injection, schedule: Q01DX009 (ip), vehicle: other",254 % of control
same,T/C,"dose: 2.0 mg/kg/injection, schedule: Q04DX003 (ip), vehicle: saline + alcohol",255 % of control
same,T/C,"dose: 2.5 mg/kg/injection, schedule: Q01DX009 (ip), vehicle: Klucel (hydroxypropylcellulose) (HPC)",257 % of control
same,T/C,"dose: 2.5 mg/kg/injection, schedule: Q01DX009 (ip), vehicle: saline with Tween-80",240 % of control
same,T/C,"dose: 2.5 mg/kg/injection, schedule: Q01DX009 (ip), vehicle: saline",333 % of control
same,T/C,"dose: 3.75 mg/kg/injection, schedule: Q01DX009 (ip), vehicle: Klucel (hydroxypropylcellulose) (HPC)",289 % of control
same,T/C,"dose: 3.75 mg/kg/injection, schedule: Q01DX009 (ip), vehicle: saline",333 % of control
same,T/C,"dose: 4.0 mg/kg/injection, schedule: Q01DX009 (ip), vehicle: alcohol",250 % of control
same,T/C,"dose: 4.0 mg/kg/injection, schedule: Q01DX009 (ip), vehicle: other",272 % of control
same,T/C,"dose: 4.0 mg/kg/injection, schedule: Q04DX003 (ip), vehicle: saline + alcohol",322 % of control
same,T/C,"dose: 5.0 mg/kg/injection, schedule: Q01DX009 (ip), vehicle: saline with Tween-80",270 % of control
same,T/C,[15],180 % of control
same,T/C,"dose: 6.25 mg/kg/injection, schedule: Q04DX003 (ip), vehicle: saline + alcohol",272 % of control
same,T/C,"dose: 10.0 mg/kg/injection, schedule: Q01DX009 (ip), vehicle: saline with Tween-80",110 % of control
same,T/C,"dose: 12.5 mg/kg/injection, schedule: Q01DX009 (ip), vehicle: saline",100 % of control
same,T/C,"dose: 12.5 mg/kg/injection, schedule: Q04DX003 (ip), vehicle: saline + alcohol",272 % of control
same,T/C,"dose: 25.0 mg/kg/injection, schedule: Q04DX003 (ip), vehicle: saline sonified",90 % of control
O=[N+]([O-])c1cc([N+](=O)[O-])c2ccc(S(=O)(=O)O)cc2c1O,T/C,"dose: 6.25 mg/kg/injection, schedule: Q04DX002 (ip), vehicle: saline",106 % of control
same,T/C,"dose: 12.5 mg/kg/injection, schedule: Q04DX002 (ip), vehicle: saline",101 % of control
same,T/C,"dose: 25.0 mg/kg/injection, schedule: Q04DX002 (ip), vehicle: saline",105 % of control
CO[C@@H](C=O)O[C@@H](C=O)CO,T/C,[15],120 % of control
same,T/C,[13],150 % of control
same,T/C,"dose: 50.0 mg/kg/injection, schedule: Q04DX003 (ip), vehicle: saline",150 % of control
same,T/C,"dose: 89.0 mg/kg/injection, schedule: Q04DX003 (ip), vehicle: saline",170 % of control
same,T/C,"dose: 100.0 mg/kg/injection, schedule: Q04DX003 (ip), vehicle: saline",160 % of control
same,T/C,"dose: 133.0 mg/kg/injection, schedule: Q04DX003 (ip), vehicle: saline",160 % of control
same,T/C,"dose: 200.0 mg/kg/injection, schedule: Q04DX003 (ip), vehicle: saline",175 % of control and 180 % of control
NC(=S)c1ccc(N)nc1,T/C,[10],103 % of control
same,T/C,[11],110 % of control
same,T/C,[12],110 % of control
CC1CCCCC1O (configuration not stated),T/C,[8],100 % of control and 109 % of control
same,T/C,[9],93 % of control and 109 % of control
same,T/C,[14],111 % of control and 95 % of control
CC1=CC(C)(C)Nc2ccc(CSc3ccccc3)cc21,T/C,"dose: 50.0 mg/kg/injection, schedule: Q01DX009 (ip), vehicle: saline + alcohol",102 % of control
same,T/C,"dose: 100.0 mg/kg/injection, schedule: Q01DX009 (ip), vehicle: saline + alcohol",120 % of control
same,T/C,"dose: 200.0 mg/kg/injection, schedule: Q01DX009 (ip), vehicle: saline + alcohol",120 % of control
